The NIST ThermoML archive (doi:10.1021/je700260f)
Several values for one entry are separate records, joined by “and”; a condition that tells them apart may be missing. Equal values may be shown once.

Details: 283.15 K, Liquid, Vibrating tube method

FC(C(F)(F)F)C(F)(F)F [1,1,1,2,3,3,3-heptafluoropropane]
Details | mass density
30560 kPa | 1568.3 kg/m3
30595 kPa | 1568.5 kg/m3
30635 kPa | 1568.6 kg/m3
30666 kPa | 1568.6 kg/m3
30696 kPa | 1568.7 kg/m3
30743 kPa | 1568.9 kg/m3
30783 kPa | 1569 kg/m3
30830 kPa | 1569.1 kg/m3
30861 kPa | 1569.2 kg/m3
30897 kPa | 1569.2 kg/m3
30937 kPa | 1569.4 kg/m3
30968 kPa | 1569.5 kg/m3
30999 kPa | 1569.5 kg/m3
31030 kPa | 1569.6 kg/m3
31065 kPa | 1569.7 kg/m3
31105 kPa | 1569.9 kg/m3
31140 kPa | 1569.9 kg/m3
31187 kPa | 1570 kg/m3
31230 kPa | 1570.2 kg/m3
31267 kPa | 1570.2 kg/m3
31308 kPa | 1570.4 kg/m3
31350 kPa | 1570.6 kg/m3
31392 kPa | 1570.6 kg/m3
31429 kPa | 1570.7 kg/m3
31511 kPa | 1570.9 kg/m3
31547 kPa | 1571.1 kg/m3
31588 kPa | 1571.2 kg/m3
31620 kPa | 1571.3 kg/m3
31657 kPa | 1571.3 kg/m3
31697 kPa | 1571.5 kg/m3
31750 kPa | 1571.7 kg/m3
31782 kPa | 1571.7 kg/m3
31819 kPa | 1571.7 kg/m3
31855 kPa | 1571.9 kg/m3
31897 kPa | 1572 kg/m3
32027 kPa | 1572.4 kg/m3
32095 kPa | 1572.5 kg/m3
32132 kPa | 1572.7 kg/m3
32164 kPa | 1572.9 kg/m3
32391 kPa | 1573.4 kg/m3
32884 kPa | 1574.5 kg/m3
32921 kPa | 1574.8 kg/m3
32959 kPa | 1574.9 kg/m3
33280 kPa | 1575.7 kg/m3
33348 kPa | 1575.9 kg/m3
33384 kPa | 1576 kg/m3
33426 kPa | 1576 kg/m3
33457 kPa | 1576.2 kg/m3
33499 kPa | 1576.3 kg/m3
33535 kPa | 1576.4 kg/m3
33572 kPa | 1576.5 kg/m3
33609 kPa | 1576.6 kg/m3
33661 kPa | 1576.7 kg/m3
33688 kPa | 1576.8 kg/m3
33731 kPa | 1576.9 kg/m3
33762 kPa | 1576.9 kg/m3
33793 kPa | 1577.1 kg/m3
33830 kPa | 1577.3 kg/m3
33873 kPa | 1577.3 kg/m3
33910 kPa | 1577.4 kg/m3
33948 kPa | 1577.5 kg/m3
33984 kPa | 1577.6 kg/m3
34026 kPa | 1577.7 kg/m3
34068 kPa | 1577.8 kg/m3
34110 kPa | 1577.9 kg/m3
34148 kPa | 1577.9 kg/m3
34186 kPa | 1578.2 kg/m3
34224 kPa | 1578.1 kg/m3
34267 kPa | 1578.2 kg/m3
34310 kPa | 1578.5 kg/m3
34350 kPa | 1578.6 kg/m3
34387 kPa | 1578.6 kg/m3
34414 kPa | 1578.7 kg/m3
34442 kPa | 1578.8 kg/m3
34456 kPa | 1578.8 kg/m3
34470 kPa | 1578.8 kg/m3
34478 kPa | 1578.9 kg/m3
34486 kPa | 1578.9 kg/m3
34492 kPa | 1579.1 kg/m3
34498 kPa | 1579 kg/m3
34504 kPa | 1578.9 kg/m3
34505 kPa | 1578.9 kg/m3
34506 kPa | 1579 kg/m3
34508 kPa | 1579 kg/m3
34509 kPa | 1579 kg/m3
34511 kPa | 1579 kg/m3 and 1579.2 kg/m3
34512 kPa | 1579 kg/m3 and 1579.1 kg/m3
34513 kPa | 1579.1 kg/m3
34514 kPa | 1579.2 kg/m3
34515 kPa | 1579 kg/m3 and 1578.9 kg/m3
34516 kPa | 1579.1 kg/m3
34517 kPa | 1579 kg/m3
34518 kPa | 1579 kg/m3
34519 kPa | 1578.9 kg/m3 and 1579 kg/m3 and 1579.1 kg/m3
34520 kPa | 1578.9 kg/m3 and 1579.1 kg/m3
34521 kPa | 1579 kg/m3 and 1578.9 kg/m3
34522 kPa | 1579 kg/m3
34523 kPa | 1579.1 kg/m3 and 1579 kg/m3
34524 kPa | 1579.1 kg/m3 and 1579 kg/m3
34525 kPa | 1579 kg/m3 and 1578.9 kg/m3
34526 kPa | 1579.1 kg/m3
34527 kPa | 1579 kg/m3
34528 kPa | 1579.1 kg/m3
